test system: not listed separately; assay: in vitro; conditions: human, plasma, pH 7.4

Row | SMILES | fraction unbound
1 | O=C(C[N+]12CCC(CC1)[C@@H](OC(=O)C1(c3cccs3)CCCCCC1)C2)Nc1cnccn1 [Example 11, (R)-1-(Pyrazin-2-ylcarbamoylmethyl)-3-(1-thiophen-2-yl-cycloheptanecarbonyloxy)-1-azonia-bicyclo[2.2.2]octane bromide] | 0.048
2 | O=C(C[N+]12CCC(CC1)[C@@H](OC(=O)C1(c3cccc(F)c3)CCCCCC1)C2)Nc1ccon1 [Example 13, (R)-3-[1-(3-Fluoro-phenyl)-cycloheptanecarbonyloxy]-1-(isoxazol-3-ylcarbamoylmethyl)-1-azonia-bicyclo[2.2.2]octane bromide] | 0.068
3 | O=C(C[N+]12CCC(CC1)[C@@H](OC(=O)C1(c3ccccc3)CCCCCC1)C2)Nc1ccccn1 [Example 15, (R)-3-(1-Phenyl-cycloheptanecarbonyloxy)-1-(pyridin-2-ylcarbamoylmethyl)-1-azonia-bicyclo[2.2.2]octane bromide] | 0.039
4 | O=C(C[N+]12CCC(CC1)[C@@H](OC(=O)C1(c3ccccc3)CCCCCC1)C2)Nc1ccc(F)cn1 [Example 17, (R)-1-[(5-Fluoro-pyridin-2-ylcarbamoyl)-methyl]-3-(1-phenyl-cycloheptanecarbonyloxy)-1-azonia-bicyclo[2.2.2]octane chloride] | 0.024
5 | Cc1cc(NC(=O)C[N+]23CCC(CC2)[C@@H](OC(=O)C2(c4ccccc4)CCCCCC2)C3)ccn1 [Example 20, (R)-1-[(2-Methyl-pyridin-4-ylcarbamoyl)-methyl]-3-(1-phenyl-cycloheptanecarbonyloxy)-1-azonia-bicyclo[2.2.2]octane chloride] | 0.018
6 | O=C(C[N+]12CCC(CC1)[C@@H](OC(=O)C1(c3ccccc3)CCCCCC1)C2)Nc1ccccc1 [Example 21, (R)-1-Phenylcarbamoylmethyl-3-(1-phenyl-cycloheptanecarbonyloxy)-1-azonia-bicyclo[2.2.2]octane bromide] | 0.006

molecular target: T1, human muscarinic acetylcholine M3 receptor (Homo sapiens, UniProt P20309); assay: biochemical; format: binding; conditions: M3 binding IC50
T1 construct: expressed in transfected cells; host or cells: CHO-K1 (Chinese Hamster Ovary) cell membranes
T1 sequence (P20309 whole entry): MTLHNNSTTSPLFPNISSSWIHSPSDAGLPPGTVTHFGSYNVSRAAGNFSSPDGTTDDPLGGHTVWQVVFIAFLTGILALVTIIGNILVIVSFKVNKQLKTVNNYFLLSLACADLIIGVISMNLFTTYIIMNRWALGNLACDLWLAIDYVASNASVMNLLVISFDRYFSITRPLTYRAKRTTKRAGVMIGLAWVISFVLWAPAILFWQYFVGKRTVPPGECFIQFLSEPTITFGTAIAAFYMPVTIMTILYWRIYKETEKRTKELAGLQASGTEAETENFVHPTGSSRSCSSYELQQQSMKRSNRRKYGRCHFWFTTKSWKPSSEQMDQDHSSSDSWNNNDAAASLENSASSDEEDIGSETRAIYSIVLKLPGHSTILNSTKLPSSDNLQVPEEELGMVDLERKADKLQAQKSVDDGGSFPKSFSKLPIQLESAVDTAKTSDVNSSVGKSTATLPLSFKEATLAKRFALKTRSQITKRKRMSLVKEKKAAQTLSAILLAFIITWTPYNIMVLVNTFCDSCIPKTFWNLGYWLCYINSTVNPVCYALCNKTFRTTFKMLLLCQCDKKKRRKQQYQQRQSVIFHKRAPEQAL

Row | SMILES | IC50
7 | O=C(C[N+]12CCC(CC1)[C@@H](OC(=O)C1(c3cccs3)CCCCCC1)C2)Nc1cnccn1 [Example 11, (R)-1-(Pyrazin-2-ylcarbamoylmethyl)-3-(1-thiophen-2-yl-cycloheptanecarbonyloxy)-1-azonia-bicyclo[2.2.2]octane bromide] | < 2 nM
8 | O=C(C[N+]12CCC(CC1)[C@@H](OC(=O)C1(c3ccccc3)CCCCCC1)C2)Nc1ccccc1 [Example 21, (R)-1-Phenylcarbamoylmethyl-3-(1-phenyl-cycloheptanecarbonyloxy)-1-azonia-bicyclo[2.2.2]octane bromide] | < 2 nM
9 | O=C(C[N+]12CCC(CC1)[C@@H](OC(=O)C1(c3ccccc3)CCCCCC1)C2)Nc1cc(F)ccc1F [Example 41, (R)-1-[(2,5-Difluoro-phenylcarbamoyl)-methyl]-3-(1-phenyl-cycloheptanecarbonyloxy)-1-azonia-bicyclo[2.2.2]octane bromide] | 2 to 10 nM
10 | N#Cc1ccc(COCC[N+]23CCC(CC2)[C@@H](OC(=O)C2(c4ccccc4)CCCCCC2)C3)cc1 [Example 42, (R)-1-[2-(4-Cyano-benzyloxy)-ethyl]-3-(1-phenyl-cycloheptanecarbonyloxy)-1-azonia-bicyclo[2.2.2]octane bromide] | 2 to 10 nM
11 | O=C(C[N+]12CCC(CC1)[C@@H](OC(=O)C1(c3ccccc3)CCCCCC1)C2)Nc1cccc(C(F)(F)F)n1 [Example 43, (R)-3-(1-Phenyl-cycloheptanecarbonyloxy)-1-[(6-trifluoromethyl-pyridin-2-ylcarbamoyl)-methyl]-1-azonia-bicyclo[2.2.2]octane chloride] | 2 to 10 nM
12 | Cc1ccnc(NC(=O)C[N+]23CCC(CC2)[C@@H](OC(=O)C2(c4ccccc4)CCCCCC2)C3)c1 [Example 44, (R)-1-[(4-Methyl-pyridin-2-ylcarbamoyl)-methyl]-3-(1-phenyl-cycloheptanecarbonyloxy)-1-azonia-bicyclo[2.2.2]octane chloride] | 2 to 10 nM
13 | O=C(C[N+]12CCC(CC1)[C@@H](OC(=O)C1(c3ccccc3)CCCCCC1)C2)Nc1ccc(Cl)cn1 [Example 45, (R)-1-[(5-Chloro-pyridin-2-ylcarbamoyl)-methyl]-3-(1-phenyl-cycloheptanecarbonyloxy)-1-azonia-bicyclo[2.2.2]octane chloride] | < 2 nM
14 | Cc1ccc(NC(=O)C[N+]23CCC(CC2)[C@@H](OC(=O)C2(c4ccccc4)CCCCCC2)C3)cc1 [Example 46, (R)-3-(1-Phenyl-cycloheptanecarbonyloxy)-1-(p-tolylcarbamoyl-methyl)-1-azonia-bicyclo[2.2.2]octane bromide] | 2 to 10 nM
15 | Cc1cccc(NC(=O)C[N+]23CCC(CC2)[C@@H](OC(=O)C2(c4ccccc4)CCCCCC2)C3)c1 [Example 47, (R)-3-(1-Phenyl-cycloheptanecarbonyloxy)-1-(m-tolylcarbamoyl-methyl)-1-azonia-bicyclo[2.2.2]octane bromide] | 2 to 10 nM
16 | O=C(C[N+]12CCC(CC1)[C@@H](OC(=O)C1(c3ccccc3)CCCCCC1)C2)Nc1ncco1 [Example 48, (R)-1-(Oxazol-2-ylcarbamoylmethyl)-3-(1-phenyl-cycloheptanecarbonyloxy)-1-azonia-bicyclo[2.2.2]octane bromide] | 2 to 10 nM
17 | Cc1ccc(NC(=O)C[N+]23CCC(CC2)[C@@H](OC(=O)C2(c4ccccc4)CCCCCC2)C3)nn1 [Example 49, (R)-1-[(6-Methyl-pyridazin-3-ylcarbamoyl)-methyl]-3-(1-phenyl-cycloheptanecarbonyloxy)-1-azonia-bicyclo[2.2.2]octane bromide] | < 2 nM
18 | O=C(C[N+]12CCC(CC1)[C@@H](OC(=O)C1(c3ccccc3)CCCCCC1)C2)Nc1ncccn1 [Example 50, (R)-3-(1-Phenyl-cycloheptanecarbonyloxy)-1-(pyrimidin-2-ylcarbamoylmethyl)-1-azonia-bicyclo[2.2.2]octane chloride] | < 2 nM
19 | N#Cc1ccc(NC(=O)C[N+]23CCC(CC2)[C@@H](OC(=O)C2(c4ccccc4)CCCCCC2)C3)nc1 [Example 51, (R)-1-[(5-Cyano-pyridin-2-ylcarbamoyl)-methyl]-3-(1-phenyl-cycloheptanecarbonyloxy)-1-azonia-bicyclo[2.2.2]octane chloride] | 2 to 10 nM
20 | O=C(C[N+]12CCC(CC1)[C@@H](OC(=O)C1(c3ccccc3)CCCCCC1)C2)Nc1cncnc1 [Example 52, (R)-3-(1-Phenyl-cycloheptanecarbonyloxy)-1-(pyrimidin-5-ylcarbamoylmethyl)-1-azonia-bicyclo[2.2.2]octane chloride] | < 2 nM
21 | O=C(C[N+]12CCC(CC1)[C@@H](OC(=O)C1(c3ccccc3)CCCCCC1)C2)Nc1ncccc1F [Example 53, (R)-1-[(3-Fluoro-pyridin-2-ylcarbamoyl)-methyl]-3-(1-phenyl-cycloheptanecarbonyloxy)-1-azonia-bicyclo[2.2.2]octane chloride] | 2 to 10 nM
22 | O=C(C[N+]12CCC(CC1)[C@@H](OC(=O)C1(c3ccccc3)CCCCCC1)C2)Nc1ccncc1F [Example 54, (R)-1-[(3-Fluoro-pyridin-4-ylcarbamoyl)-methyl]-3-(1-phenyl-cycloheptanecarbonyloxy)-1-azonia-bicyclo[2.2.2]octane chloride] | < 2 nM
23 | O=C(NCC[N+]12CCC(CC1)[C@@H](OC(=O)C1(c3ccccc3)CCCCCC1)C2)c1cnccn1 [Example 55, (R)-3-(1-Phenyl-cycloheptanecarbonyloxy)-1-{2-[(pyrazine-2-carbonyl)-amino]-ethyl}-1-azonia-bicyclo[2.2.2]octane bromide] | 2 to 10 nM
24 | O=C(C[N+]12CCC(CC1)[C@@H](OC(=O)C1(c3ccccc3)CCCCCC1)C2)Nc1ncns1 [Example 56, (R)-3-(1-Phenyl-cycloheptanecarbonyloxy)-1-([1,2,4]thiadiazol-5-ylcarbamoylmethyl)-1-azonia-bicyclo[2.2.2]octane chloride] | 2 to 10 nM
25 | O=C(NCCC[N+]12CCC(CC1)[C@@H](OC(=O)C1(c3ccccc3)CCCCCC1)C2)c1ccccn1 [Example 57, (R)-3-(1-Phenyl-cycloheptanecarbonyloxy)-1-{3-[(pyridine-2-carbonyl)-amino]-propyl}-1-azonia-bicyclo[2.2.2]octane bromide] | 2 to 10 nM
26 | Cc1cc(NC(=O)C[N+]23CCC(CC2)[C@@H](OC(=O)C2(c4ccccc4)CCCCCC2)C3)ncn1 [Example 59, (R)-1-[(6-Methyl-pyrimidin-4-ylcarbamoyl)-methyl]-3-(1-phenyl-cycloheptanecarbonyloxy)-1-azonia-bicyclo[2.2.2]octane chloride] | 2 to 10 nM
27 | O=C(NCC[N+]12CCC(CC1)[C@@H](OC(=O)C1(c3ccccc3)CCCCCC1)C2)c1ccccn1 [Example 60, (R)-3-(1-Phenyl-cycloheptanecarbonyloxy)-1-{2-[(pyridine-2-carbonyl)-amino]-ethyl}-1-azonia-bicyclo[2.2.2]octane bromide] | < 2 nM
28 | O=C(O[C@H]1C[N+]2(CCCc3ccncc3)CCC1CC2)C1(c2ccccc2)CCCCCC1 [Example 61, (R)-3-(1-Phenyl-cycloheptanecarbonyloxy)-1-(3-pyridin-4-yl-propyl)-1-azonia-bicyclo[2.2.2]octane bromide] | < 2 nM

same assay, conditions: pIC50

Row | SMILES | IC50
29 | O=C(C[N+]12CCC(CC1)[C@@H](OC(=O)C1(c3cccc(F)c3)CCCCCC1)C2)Nc1ccon1 [Example 13, (R)-3-[1-(3-Fluoro-phenyl)-cycloheptanecarbonyloxy]-1-(isoxazol-3-ylcarbamoylmethyl)-1-azonia-bicyclo[2.2.2]octane bromide] | 0.0794 nM

From patent US20130030001A1 (priority 2008, published 2013)
